In US10285989B2, “Pyrimidinone amide compounds as PDE2 inhibitors” (Merck Sharp & Dohme Corp., priority 2015, dated 2019):

Target: Rhesus PDE2A3 (Macaca mulatta, UniProt B3VTJ2)
Assay: PDE2 fluorescence polarization (IMAP FP) inhibition assay, rhesus PDE2A3
Format: biochemical, rhesus macaque
Details: @ 1 μM; Lab A; read-out: Rhesus PDE2 % inhibition at a given concentration - Lab A
Procedure: A Labcyte Echo 555 (Labcyte, Sunnyvale, Calif.) is used to dispense 200 nL from each well of the titration plate to the 384 well assay plate. Ten microliters of a solution of enzyme (1/2000 final dilution from aliquots; sufficient to produce 20% substrate conversion) was added to the assay plate. Next 10 uL of a separate solution of the substrate FAM-labeled cAMP (50 nM final concentration product # R^7506 from Molecular Devices) and the activator cGMP (1 uM final concentration), prepared in the assay buffer (10 mM Tris HCl, pH 7.2, 10 mM MgCl2, 0.05% NaN3 0.01% Tween-20, and 1 mM DTT) was added to the assay plate and shaken to mix. The reaction is allowed to proceed at room temperature for 60 minutes. A binding solution is then made from the kit components, comprised of 80% Solution A, 20% Solution B and binding reagent at a volume of 1/600 the total binding solution. The enzymatic reaction is stopped by addition of 60 μL of the binding solution to each well of the assay plates and the plates are sealed and shaken for 30 seconds. The plate was incubated at room temperature for at least one hour prior to determining the fluorescence polarization (FP). The parallel and perpendicular fluorescence of each well of the plate was measured using a Tecan Genios Pro plate reader (Tecan, Switzerland) or Perkin Elmer EnVision™ plate reader (Waltham, Mass.). Fluorescence polarization (mP) was calculated from the parallel (S) and perpendicular (P) fluorescence of each sample well and the analogous values for the median control well, containing only substrate (So and Po), using the following equation: Polarization (mP)=1000*(S/So−P/Po)/(S/So+P/Po).
Dose-inhibition profiles for each compound were characterized by fitting the mP data to a four-parameter equation given below.
An apparent (KM) for FAM-labeled cAMP of ˜10 uM was used.

Sequence of Rhesus PDE2A3 (B3VTJ2 1-941): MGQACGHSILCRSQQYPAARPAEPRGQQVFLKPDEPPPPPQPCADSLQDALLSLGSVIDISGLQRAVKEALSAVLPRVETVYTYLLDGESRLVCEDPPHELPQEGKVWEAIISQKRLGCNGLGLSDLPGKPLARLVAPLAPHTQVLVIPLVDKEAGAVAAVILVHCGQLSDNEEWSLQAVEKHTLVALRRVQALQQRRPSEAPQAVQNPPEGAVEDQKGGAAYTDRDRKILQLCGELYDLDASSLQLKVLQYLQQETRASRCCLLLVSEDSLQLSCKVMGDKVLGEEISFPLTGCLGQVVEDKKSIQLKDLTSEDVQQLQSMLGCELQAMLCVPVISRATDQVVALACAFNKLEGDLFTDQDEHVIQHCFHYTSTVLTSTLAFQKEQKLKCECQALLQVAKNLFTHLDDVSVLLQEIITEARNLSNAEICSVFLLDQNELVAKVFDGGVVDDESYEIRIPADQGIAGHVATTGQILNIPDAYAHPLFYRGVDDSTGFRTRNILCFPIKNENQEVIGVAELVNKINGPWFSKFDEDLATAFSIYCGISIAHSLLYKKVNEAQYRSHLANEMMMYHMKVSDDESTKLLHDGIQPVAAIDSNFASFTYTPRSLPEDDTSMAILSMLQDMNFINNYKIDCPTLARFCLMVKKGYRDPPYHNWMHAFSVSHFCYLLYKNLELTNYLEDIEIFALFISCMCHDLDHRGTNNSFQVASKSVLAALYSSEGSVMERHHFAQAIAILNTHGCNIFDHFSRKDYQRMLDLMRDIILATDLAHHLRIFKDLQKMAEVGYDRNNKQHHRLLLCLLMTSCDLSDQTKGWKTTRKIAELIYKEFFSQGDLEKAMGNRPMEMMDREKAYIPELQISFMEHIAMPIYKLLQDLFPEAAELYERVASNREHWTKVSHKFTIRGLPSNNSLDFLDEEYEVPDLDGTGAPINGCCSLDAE

inhibition at 1 µM [%] | Structure (SMILES)
25 | Cc1cnn(-c2nc(C(=O)N[C@H](C)c3ccc(C(F)(F)F)cc3)cc(=O)[nH]2)c1 [Example 7, (R)-2-(4-methyl-1H-pyrazol-1-yl)-6-oxo-N-(1-(4-(trifluoromethyl)phenyl)ethyl)-1,6-dihydropyrimidine-4-carboxamide]
30 | Cc1ccn(-c2nc(C(=O)N[C@H](C)c3ccc(C(F)(F)F)cc3)cc(=O)[nH]2)n1 [Example 8, (R)-2-(3-methyl-1H-pyrazol-1-yl)-6-oxo-N-(1-(4-(trifluoromethyl)phenyl)ethyl)-1,6-dihydropyrimidine-4-carboxamide]
26 | C[C@@H](NC(=O)c1cc(=O)[nH]c(-n2cccn2)n1)c1ccc(C(F)(F)F)cc1 [Example 9, (R)-6-oxo-2-(1H-pyrazol-1-yl)-N-(1-(4-(trifluoromethyl)phenyl)ethyl)-1,6-dihydropyrimidine-4-carboxamide]

Same assay, conditions: Lab A; read-out: Rhesus PDE2 Ki (nM) - Lab A

Ki [nM] | Structure (SMILES)
13300 | CSc1nc(C(=O)N[C@@H](C)c2ccc(C(F)(F)F)cc2)cc(=O)[nH]1 [Example 16, (S)-2-(methylthio)-6-oxo-N-(1-(4-(trifluoromethyl)phenyl)ethyl)-1,6-dihydropyrimidine-4-carboxamide]
2930 | C[C@@H](NC(=O)c1cc(=O)[nH]c(Oc2ccccc2)n1)c1ccc(C(F)(F)F)cc1 [Example 19, (R)-6-oxo-2-phenoxy-N-(1-(4-(trifluoromethyl)phenyl)ethyl)-1,6-dihydropyrimidine-4-carboxamide]
657 | COCCOc1nc(C(=O)NC(C)c2ccc(C(F)(F)F)cc2)cc(=O)[nH]1 (centres unmarked) [Example 21, 2-(2-Methoxyethoxy)-6-oxo-N-(1-(4-(trifluoromethyl)phenyl)ethyl)-1,6-dihydropyrimidine-4-carboxamide]
86000 | CNCCCOc1nc(C(=O)NC(C)c2ccc(C(F)(F)F)cc2)cc(=O)[nH]1 (centres unmarked) [Example 180, 2-[3-(methylamino)propoxy]-6-oxo-N-{1-[4-(trifluoromethyl)phenyl]ethyl}-1,6-dihydro-pyrimidine-4-carboxamide]
> 100000 | CC(NC(=O)c1cc(=O)[nH]c(OC2CCN(C)C2)n1)c1ccc(C(F)(F)F)cc1 (centres unmarked) [Example 181, 2-[(1-methylpyrrolidin-3-yl)oxy]-6-oxo-N-{1-[4-(trifluoromethyl)phenyl]ethyl}-1,6-dihydro pyrimidine-4-carboxamide]
55000 | CC(NC(=O)c1cc(=O)[nH]c(OC2CCCN(C)C2)n1)c1ccc(C(F)(F)F)cc1 (centres unmarked) [Example 182, 2-[(1-methylpiperidin-3-yl)oxy]-6-oxo-N-{1-[4-(trifluoromethyl)phenyl]ethyl}-1,6-dihydro pyrimidine-4-carboxamide]
72000 | CC(NC(=O)c1cc(=O)[nH]c(OCCN(C)C)n1)c1ccc(C(F)(F)F)cc1 (centres unmarked) [Example 184, 2-[2-(dimethylamino)ethoxy]-6-oxo-N-{1-[4-(trifluoromethyl)phenyl]ethyl}-1,6-dihydro-pyrimidine-4-carboxamide]
> 100000 | CC(NC(=O)c1cc(=O)[nH]c(OC2CCNC2)n1)c1ccc(C(F)(F)F)cc1 (centres unmarked) [Example 185, 6-oxo-2-(pyrrolidin-3-yloxy)-N-{1-[4-(trifluoromethyl)phenyl]ethyl}-1,6-dihydropyrimidine-4-carboxamide]
> 100000 | CC(NC(=O)c1cc(=O)[nH]c(OC2CCNCC2)n1)c1ccc(C(F)(F)F)cc1 (centres unmarked) [Example 187, 6-oxo-2-(piperidin-4-yloxy)-N-{1-[4-(trifluoromethyl)phenyl]ethyl}-1,6-dihydropyrimidine-4-carboxamide]
12600 | CC(NC(=O)c1cc(=O)[nH]c(OCC2(C)COC2)n1)c1ccc(C(F)(F)F)cc1 (centres unmarked) [Example 188, 2-[(3-methyloxetan-3-yl)methoxy]-6-oxo-N-{1-[4-(trifluoromethyl)phenyl]ethyl}-1,6-dihydropyrimidine-4-carboxamide]
9310 | CNCCOc1nc(C(=O)NC(C)c2ccc(C(F)(F)F)cc2)cc(=O)[nH]1 (centres unmarked) [Example 189, 2-[2-(methylamino)ethoxy]-6-oxo-N-{1-[4-(trifluoromethyl)phenyl]ethyl}-1,6-dihydropyrimidine-4-carboxamide]
> 100000 | CC(NC(=O)c1cc(=O)[nH]c(OC2CCN(C)CC2)n1)c1ccc(C(F)(F)F)cc1 (centres unmarked) [Example 190, 2-[(1-methylpiperidin-4-yl)oxy]-6-oxo-N-{1-[4-(trifluoromethyl)phenyl]ethyl}-1,6-dihydro-pyrimidine-4-carboxamide]
> 100000 | CC(NC(=O)c1cc(=O)[nH]c(OC2CCCNC2)n1)c1ccc(C(F)(F)F)cc1 (centres unmarked) [Example 191, 6-oxo-2-(piperidin-3-yloxy)-N-{1-[4-(trifluoromethyl)phenyl]ethyl}-1,6-dihydropyrimidine-4-carboxamide]
11500 | CC(NC(=O)c1cc(=O)[nH]c(OC2COC2)n1)c1ccc(C(F)(F)F)cc1 (centres unmarked) [Example 192, 2-(oxetan-3-yloxy)-6-oxo-N-{1-[4-(trifluoromethyl)phenyl]ethyl}-1,6-dihydropyrimidine-4-carboxamide]
1060 | CC(NC(=O)c1cc(=O)[nH]c(OC2CCOC2)n1)c1ccc(C(F)(F)F)cc1 (centres unmarked) [Example 193, 6-oxo-2-(tetrahydrofuran-3-yloxy)-N-{1-[4-(trifluoromethyl)phenyl]ethyl}-1,6-dihydropyrimidine-4-carboxamide]

Structure (SMILES) | Ki [nM]
COC(C)(C)CCOc1nc(C(=O)NC(C)c2ccc(C(F)(F)F)cc2)cc(=O)[nH]1 (centres unmarked) [Example 186, 2-(3-methoxy-3-methylbutoxy)-6-oxo-N-{1-[4-(trifluoromethyl)phenyl]ethyl}-1,6-dihydro pyrimidine-4-carboxamide] | 352

Same assay, conditions: Rhesus PDE2 Ki (nM) - Lab B, Lab B

Structure (SMILES) | Ki [nM]
CC(C)C(C)(NC(=O)c1cc(=O)[nH]c(N(C)C)n1)c1ccc(S(F)(F)(F)(F)F)cc1 (single isomer, unassigned) [Example 172, (R)- or (S)-2-dimethylamino)-N-{1,2-dimethyl-1-[4-(pentafluoro-λ^6-sulfanyl)phenyl]propyl}-6-oxo-1,6-dihydropyrimidine-4-carboxamide] | 154
